Consider five compounds from US8507551B2, “Antimicrobial therapy for bacterial infections” (priority 2005, dated 2013).

Assay [1] relates to WT and ΔCrtM S. aureus in human neutrophils. The note with it: FIG. 2d.
Protocol: Neutrophils were purified from healthy human volunteers using a Histopaque gradient (Sigma) per manufacturer's directions. Intracellular survival assays were performed as follows. Bacterial cultures were washed twice in PBS, diluted to a concentration of 4.5×10^6 cfu in 100 μl RPMI+10% FCS, and mixed with 3×10^5 neutrophils in the same media (multiplicity of infection, MOI=15:1), centrifuged at 700×g for 5 min, then incubated at 37° C. in a 5% CO2 incubator. Gentamicin (Gibco) (final concentration 400 μg/ml for S. aureus and 100 μg/ml for S. pyogenes) was added after 10 min to kill extracellular bacteria. At specified time points, the contents of sample wells were withdrawn, centrifuged to pellet the neutrophils, and washed to remove the antibiotic medium. Neutrophils were then lysed in 0.02% triton-X, and cfu calculated by plating on THA. Several assays were repeated with addition of a step involving preincubation of the bacterial inoculum with 10% autologous human serum for 15 min on ice.
For assay [2], the system named is WT and ΔCrtM S. aureus in mouse blood. The note with it: FIG. 6c.
Protocol: Bacteria were washed twice in PBS, diluted to an inoculum of 10^4 cfu in 25 μl PBS, and mixed with 75 μl of freshly drawn human or mouse blood in heparinized tubes. The tubes were incubated at 37° C. for 4 h with agitation, at which time dilutions were plated on THA for enumeration of surviving cfu.
The subject of the next assay is WT and ΔCrtM S. aureus. The assay can be described thus: Protease and cathelicidin sensitivity assays. It is filed as cell-based, Staphylococcus aureus. As to conditions: WT vs ΔCrtM S. aureus, 2 h at 37° C., FIG. 6d, e. The method, then:
Human neutrophil elastase, and cathepsin G were purchased from Calbiochem. The antimicrobial peptide mCRAMP was synthesized at the Louisiana State University Protein Facility (Martha Juban, Director). S. aureus cultures were diluted (1:2,000) in 10 mM phosphate buffer (pH 7.2)+0.5% LB to 1×10^6 CFU/ml. Ninety μl of this bacterial suspension was added to replicate wells in a 96-well plate. Dilutions of the cathepsin G (20 and 100 mU/ml), human neutrophil elastase (12.5 and 50 μg/ml), and murine CRAMP (0.4-3 μM) were prepared in 10 mM phosphate buffer and added to wells in 10 μl volume; 10 mM phosphate buffer alone was used as a negative control. After 2 h incubation at 37° C., 25 μl aliquots of each well were serially diluted in PBS and plated on THB. Each experiment was performed in duplicate and repeated.

The subject of assay [3] is WT strain of S. aureus. The note with it: earlier report; moderate residual accumulation of δ carotenoid intermediate noted; cited from earlier work.
Assay [4] concerns ΔCrtM mutant S. aureus. The assay can be described thus: Singlet oxygen susceptibility assay (methylene blue and light), ΔCrtM mutant control. It is filed as cell-based, Staphylococcus aureus. The note with it: ΔCrtM mutant exposed to SKF 525-A, FIG. 4b. The method, then: (§1) Wild-type and ΔCrtM mutant S. aureus were cultured in the presence or absence of SKF 525-A at the indicated concentrations. Depicted are the observed effects on A) pigmentation phenotype, B) singlet oxygen susceptibility, and C) survival in murine whole blood. Results shown are representative of at least three experiments.
(§2) Tests for susceptibility to oxidants were performed either in PBS (S. aureus) or THB (S. pyogenes). Hydrogen peroxide (H2O2) was added to 1.5% final concentration, […] bacteria incubated at 37° C. for 1 h, then 1,000 U/ml of catalase (Sigma) added to quench residual H2O2. […] For the singlet oxygen assay, 10^8 S. aureus or 4×10^8 S. pyogenes were incubated at 37° C. in individual wells of a 24-well culture plate in the presence or absence of 1-6 μg/ml methylene blue and situated exactly 10 cm from a 100-watt light source. Bacterial viability was assessed after 1-3 h by plating dilutions on THA.
(§3) Given the protective effect provided to the bacteria by the golden yellow pigments, a pharmacologic agent that inhibits carotenogenesis might render S. aureus more susceptible to immune clearance.

Assay [5] relates to WT S. aureus. The assay can be described thus: Singlet oxygen susceptibility assay (methylene blue and light), WT strain. As to conditions: WT S. aureus cultured with SKF 525-A, FIG. 4b. It is filed as cell-based, Staphylococcus aureus. The method, then:
as §1, §2, §3

Assay [6] concerns ΔCrtM mutant S. aureus. The assay can be described thus: Whole blood killing assay, ΔCrtM mutant control. The format is cell-based, Staphylococcus aureus. As to conditions: ΔCrtM mutant exposed to SKF 525-A, FIG. 4c. The method, then: as §1, §3
The test system of assay [7] is WT S. aureus. The assay can be described thus: Whole blood killing assay, WT strain. The format is cell-based, Staphylococcus aureus. The note with it: WT S. aureus cultured with SKF 525-A, FIG. 4c. As for the experimental part: Wild-type and ΔCrtM mutant S. aureus were cultured in the presence or absence of SKF 525-A at the indicated concentrations. […] Results shown are representative of at least three experiments.
as §3

Assay [8] concerns WT strain of S. aureus. The assay can be described thus: Pigment production of S. aureus grown in the presence of the agent. The format is cell-based, Staphylococcus aureus. As to conditions: FIG. 4a. As for the experimental part:
as §1
Wild-type S. aureus strain (Pig1), isolated from the skin of a child with atopic dermatitis. Streptococcus pyogenes strain 5448 is a well-characterized serotype M1T1 clinical isolate^18. CD1 and C57Bl/6 mice were purchased from Charles River. The gp91^Phox−/− mice were bred at the Veteran's Administration Medical Center, San Diego and maintained on trimethoprim/sulfamethoxazole prophylaxis until 3 d prior to experiments. S. aureus and S. pyogenes were propagated in Todd-Hewitt broth (THB) or on THB agar (Difco, Detroit, Mich.). Unless otherwise indicated, all experiments were performed with bacteria derived from S. aureus 36-48 h stationary phase cultures or S. pyogenes 24 h stationary phase cultures, a point when pigmentation phenotypes were readily apparent.
Stationary phase (48 h) cultures of WT S. aureus Pig1 and its isogenic ΔCrtM mutant were subjected to methanol extraction. The absorbance profile of the extracts was measured with a MBA 2000 spectrophotometer (Perkin Elmer). […]

For the compound `c1ccc2c(c1)[I+]c1ccccc1-2` [DPI, diphenyleneiodonium], the “survival of WT and ΔCrtM S. aureus in human neutrophils when oxidative burst inhibited” value in assay [1] was “survived equally well”. The “survival of WT and ΔCrtM S. aureus in mouse blood when oxidative burst inhibited” value in assay [2] is “survived equally well”.
In the case of “mCRAMP: murine cathelicidin antimicrobial peptide, synthesized at Louisiana State University Protein Facility (ISRLAGLLRKGGEKIGEKLKKIGQKIKNFFQKLVPQPE; Cathelin-related antimicrobial peptide; UniProt P51437 135-172, looked up)”, the “susceptibility of S. aureus to antimicrobial action” value in the assay on WT and ΔCrtM S. aureus was “equally susceptible”.
`CCCC(C(=O)OCCN(CC)CC)(c1ccccc1)c1ccccc1` [SKF 525-A, 2-diethylaminoethyl-2,2-diphenyl-valerate]: the “pigment formation in S. aureus (previously shown)” value with WT strain of S. aureus [3] is given as “inhibit pigment formation”. For the same compound, in the assay on ΔCrtM mutant S. aureus [4], the “effect on oxidant susceptibility” value is on record as “no significant effects”. The “susceptibility to singlet oxygen killing” value in the assay on WT S. aureus [5] is reported as “dose-dependent increase”. In the assay on ΔCrtM mutant S. aureus [6], the “effect on blood survival” value is given as “no significant effects”. In addition, the “ability to survive in human whole blood” value in the assay with WT S. aureus [7] is reported as “decrease”. In addition, the pigment production result with WT strain of S. aureus [8] is listed as “dose-dependent decrease”.
On to “cathepsin G: granule protease purchased from Calbiochem”, for which, in the assay with WT and ΔCrtM S. aureus, the “susceptibility of S. aureus to antimicrobial action” value is “no difference”.
Same read-out and setting: next, “human neutrophil elastase: granule protease purchased from Calbiochem”: “resistant”.
